In patent publication US5639773A, “Ocular hypotensive agent” (priority 1993, dated 1997):
Like-named read-outs stand apart in the source and are kept apart here.

Experiments:
Japanese albino rabbits [1] = experiment: Action for lowering intraocular pressure in Japanese albino rabbits (Pneumatonograph); format: in vivo, rabbit; conditions: for Intraocular Pressure 30 minutes after instillation / Intraocular Pressure before instillation: 50 μl; for Intraocular Pressure 30 minutes after instillation / Intraocular Pressure before instillation / Intraocular Pressure difference: n=5; for Intraocular Pressure before instillation: baseline; for Intraocular Pressure difference: 30 minutes after vs before instillation
Protocol: (§1) The action for lowering intraocular pressure in rabbits
(§2) Male Japanese albino and pigmented rabbits having no anterior ocular abnormalities were used. One eye received 50 μl of the test drug, the other eye 50 μl of physiological saline as a control. Changes over time in ocular tension were measured. Ocular tension was measured for both eyes using a Pneumatonograph (produced by Alcon) before and 30 minutes and/or 1 hour after instillation. The test drug was (±)-1-(cyclohexyloxycarbonyloxy)ethyl 2-ethoxy-1-[[2'-(1H-tetrazol-5-yl)biphenyl-4-yl]methyl]-1H-benzimidazole-7-carboxylate (hereinafter referred to as Compound 1) as suspended in physiological saline or 0.1 w/v % polysorbate 80 to concentrations of 0.1, 0.5 and 1.0 w/v %. Also performed periodically were macroscopic observation of the anterior ocular segment and measurement of pupil diameter.

pigmented rabbits [2] = experiment: Action for lowering intraocular pressure in pigmented rabbits (Pneumatonograph); format: in vivo, rabbit; conditions: for Intraocular Pressure 1 hour after instillation / Intraocular Pressure 30 minutes after instillation / Intraocular Pressure before instillation: 50 μl; for Intraocular Pressure before instillation: baseline; for ocular tension (result in words): suspended in 0.1 w/v % polysorbate 80
Protocol: as §1, §2

Japanese albino rabbits [3] = conditions: rabbit, in vivo
Protocol: as §2

[4] = test system: anterior ocular segment of rabbits; conditions: rabbit, in vivo
Protocol: as §2

pigmented rabbits [5] = conditions: rabbit, in vivo
Protocol: as §2

[6] = test system: anterior ocular segment of rabbits; conditions: rabbit, in vivo; remark: listed apart in the source
Protocol: as §2

[7] = Acute toxicity test, mice; conditions: mouse, in vivo; single oral administration, 4-week-old Jcl:ICR mice (males, females)
Protocol: (§3) The LD50 of compound 1 exceeded 2,000 mg/kg, as of single oral administration, in 4-week-old Jcl:ICR mice (males, females) and 5-week-old Jcl:Wistar rats (males, females).

[8] = Acute toxicity test, rats; conditions: rat, in vivo; single oral administration, 5-week-old Jcl:Wistar rats (males, females)
Protocol: as §3

[9] = 0.1 w/v %, suspended in physiological saline
[10] = 0.5 w/v %, suspended in physiological saline
[11] = 0.1 w/v %, suspended in 0.1 w/v % polysorbate 80, n=6
[12] = 1.0 w/v %, suspended in 0.1 w/v % polysorbate 80, n=7

CCOc1nc2cccc(C(=O)OC(C)OC(=O)OC3CCCCC3)c2n1Cc1ccc(-c2ccccc2-c2nnn[nH]2)cc1 (racemic) [Compound 1, (±)-1-(cyclohexyloxycarbonyloxy)ethyl 2-ethoxy-1-[[2'-(1H-tetrazol-5-yl)biphenyl-4-yl]methyl]-1H-benzimidazole-7-carboxylate]
Intraocular Pressure 30 minutes after instillation (Japanese albino rabbits [1]; [9]): 16.3 ± 1.16 mmHg
Intraocular Pressure before instillation (Japanese albino rabbits [1]; [9]): 17.8 ± 0.80 mmHg
Intraocular Pressure difference (Japanese albino rabbits [1]; 0.1 w/v %): -1.5 mmHg
Intraocular Pressure 30 minutes after instillation (Japanese albino rabbits [1]; [10]): 16.0 ± 0.76 mmHg
Intraocular Pressure before instillation (Japanese albino rabbits [1]; [10]): 18.2 ± 0.60 mmHg
Intraocular Pressure difference (Japanese albino rabbits [1]; 0.5 w/v %): -2.2 mmHg
Intraocular Pressure 30 minutes after instillation (Japanese albino rabbits [1]; 1.0 w/v %, suspended in physiological saline, *p < 0.05 vs before instillation): 15.0 ± 0.47 mmHg
Intraocular Pressure before instillation (Japanese albino rabbits [1]; 1.0 w/v %, suspended in physiological saline): 18.7 ± 0.44 mmHg
Intraocular Pressure difference (Japanese albino rabbits [1]; 1.0 w/v %): -3.7 mmHg
ocular tension (result in words) (Japanese albino rabbits [1]; by 30 minutes after instillation, 0.1, 0.5 and 1.0 w/v %, suspended in physiological saline): fell dose-dependently
Intraocular Pressure 1 hour after instillation (pigmented rabbits [2]; [11]): 23.6 ± 0.33 mmHg
Intraocular Pressure 30 minutes after instillation (pigmented rabbits [2]; 0.1 w/v %, suspended in 0.1 w/v % polysorbate 80, n=6, *p < 0.05 vs before instillation): 22.0 ± 0.39 mmHg
Intraocular Pressure before instillation (pigmented rabbits [2]; [11]): 24.3 ± 0.25 mmHg
ocular tension (result in words) (pigmented rabbits [2]; 0.1 w/v %, 30 minutes after instillation): fell greatly
Intraocular Pressure 30 minutes after instillation (pigmented rabbits [2]; [12]): 21.9 ± 0.81 mmHg
Intraocular Pressure 1 hour after instillation (pigmented rabbits [2]; 1.0 w/v %, suspended in 0.1 w/v % polysorbate 80, n=7, **p < 0.001 vs before instillation): 21.4 ± 0.43 mmHg
Intraocular Pressure before instillation (pigmented rabbits [2]; [12]): 24.0 ± 0.29 mmHg
ocular tension (result in words) (pigmented rabbits [2]; 1.0 w/v %, one hour after instillation): fell greatly
change in pupil diameter (Japanese albino rabbits [3]): Nor was there any change in pupil diameter
macroscopic abnormalities in the anterior ocular segment [4]: no macroscopic abnormalities were noted
change in pupil diameter (pigmented rabbits [5]): Nor was there any change in pupil diameter
macroscopic abnormalities in the anterior ocular segment [6]: no macroscopic abnormalities were noted
LD50 [7]: > 2000 mg/kg
LD50 [8]: > 2000 mg/kg
